# Experimental data reported in article PMC12128024, “Copper(II) Cyclopeptides with High ROS-Mediated Cytotoxicity” (Bioconjugate Chemistry, 2025).
# *1 amine or outer side, *2 acyl side, *3 side chain or, on linkers, in order; H or OH if unused. Where a SMILES comes first, the peptide text is derived from it. [ ]: non-standard residue; d: D form. X1 = O=C(c1ccc(-c2ccc(N[*:1])cn2)nc1)[*:2]; βAla = NCCC(=O)O
# How the values were obtained:
# [1] = tested on: NCI/ADR-RES (doxorubicin resistant ovarian carcinoma); conditions: 48 h
# Source text: (§1) IC50 is the concentration at which 50% growth inhibition is obtained and E max represents the efficacy of the compound at its maximum concentration, expressed as the maximum % cell inhibition achieved by the compound (see Section S6 and Figure S8 of the Supporting Information).
# (§2) General method: cell lines and grown conditions
# (§3) Non-small lung carcinoma NCI-H460, human colon carcinoma HCT-116, human glioma SF-268
# (§4) and doxorubicin-resistance human mamma carcinoma NCI/ADR-RES cell lines, as well as
# (§5) Eagle’s Minimal Essential Medium (EMEM) and RPMI1640 were purchased from the American Tissue Culture Collection (ATCC). Frozen cells were thawed in a 75 cm2 cell culture flask in RPMI
# (§6) supplemented with 2 mM L-glutamine and 10% FBS and maintained at 37 °C in a 5% CO2
# (§7) The inhibition of cell proliferation induced by the samples [1/Cu(II), 1 eq. cyclopeptide 1/3 eq. of
# (§8) Cu(II); 2/Cu(II), 1 eq. cyclopeptide 2/5 eq. of Cu(II)]‚ was carried out by using MTT method for
# (§9) HCT-116, NCI/ADR-RES and NCI-H460 cell lines. SF-268 cell growth inhibition induced by the
# (§10) samples was assessed using a system based on crystal violet cell staining and subsequent
# (§11) acetylation. Cells were seeded in a 96-well microplate (5000 cells/well for HCT-116, 10000
# (§12) cells/well for SF-268 and 15000 cells/well for NCI/ADR-RES and NCI-H460 cell lines) in 100 μl
# (§13) of growth medium and maintained at 37 °C for 24 h.
# (§14) Then growth medium was replaced by fresh medium containing different concentrations of the
# (§15) samples to be assayed and maintained at 37 °C in a 5% CO2 atmosphere for 48 h. After this
# (§16) time, 10 μL MTT (5 mg/ml in PBS) were added to each well and maintained for 4 h at 37 °C in a
# (§17) 5% CO2 atmosphere. Then 100 μL of 10% SDS in 0.01 M HCl were added to each well an
# (§18) incubated for 12-14 h under the same experimental conditions. Absorbance due to formation
# (§19) was detected in a Tecan infinity M1000 Pro reader using a wavelength of 595 nm. All assays
# were performed with triplicate points.
# b) Crystal violet cell staining
# (§20) The samples dissolved in water were added, maintaining the same proportion of water in each
# (§21) well (10%). After 72 h (at 37°C and in an atmosphere of 5% CO 2/95% air), the cells were fixed to
# (§22) the plate with 10 μL of 11% glutaraldehyde solution, kept under agitation at room temperature,
# (§23) for 15 minutes. Once fixed, the medium was removed and the cells were washed 3-4 times with
# (§24) distilled water, followed by staining of the cells with 100 μL of a 0.1% crystal violet solution. This
# (§25) solution was prepared by diluting 0.1g of crystal violet in 100 mL of buffer composed of 200 mM
# (§26) phosphoric acid, 200 mM formic acid and 200 mM 2-(N-morpholino)-ethane sulphonic acid
# (§27) (MES) at pH 6. The plate was kept shaking at room temperature for 15 minutes. The dye was
# (§28) removed, washed 3-4 times with distilled water and dried. 100 μL of 10% acetic acid was then
# (§29) added and kept under agitation for 15 minutes, at room temperature, so that the staining was
# (§30) homogeneous in all wells. Finally, an absorbance reading of the plates was performed at a
# (§31) wavelength of 595 nm (Tecan M1000 Infinite Pro). The assay was performed with triplicate points.
# (§32) Data were expressed as the growth inhibition percentage calculated in basis on the equation: %
# (§33) inhibition= 100 – [(AO × 100) / AT]. Where AT is the measured absorbance in wells containing
# (§34) compounds and AO is the absorbance measured in blank wells (cells with medium and vehicle).
# (§35) The inhibitory potency of compounds was calculated by constructing concentration-% growth
# (§36) inhibition curves, and extrapolating IC50 values (concentration of compound that inhibits cells
# [2] = Fluorescence titration of cyclopeptides with Cu(II) ions (DynaFit fit); format: binding; conditions: 2 μM cyclopeptide, 1 mM phosphate buffer, 10 mM NaCl, pH 6.5; 1: 1:2 model (cyclopeptide:metal); 2: simplified model with 1:1 and 2:1 species; read-out: global dissociation constant K D
# Source text: While the 2,2′-bipyridine ligand is known to be weakly emissive and for all practical purposes considered nonfluorescent, , the 5′-amido-[2,2′-bipyridine]-5-carboxamide unit in the βAlaBpy building block is highly emissive, displaying an intense emission band at c.a. 410 nm with a quantum yield of 0.37. Furthermore, the fluorescence of the βAlaBpy units is quenched upon coordination to a wide range of divalent transition metal ions. We exploited this property to monitor the coordinative properties of cyclopeptides 1 and 2 in the presence of labile Cu(II) ions in aqueous media. Thus, we measured the emission spectra of 2 μM solutions of the cyclopeptides 1 and 2 in 1 mM phosphate buffer and 10 mM NaCl, pH 6.5, upon excitation at 308 nm in the presence of increasing concentrations of Cu(II) ions. […] Therefore, the affinity of the first part of the titrations cannot be determined with this experiment as it is too strong. […]
# 5.2. Fluorescence titration experiments
# Luminescence experiments were made with a Varian Cary Eclipse Fluorescence spectrophotometer coupled to a Cary Single Cell Peltier accessory (Agilent Technologies) temperature controller. […]
# emission spectrum was recorded (λex= 308 nm; λem= 410 nm) after each addition. […]
# [3] = tested on: HCT-116 (colon carcinoma); conditions: 48 h
# Source text: as §1, §2, §3, §4, §5, §6, §7, §8, §9, §10, §11, §12, §13, §14, §15, §16, §17, §18, §19
# were performed with triplicate points.
# b) Crystal violet cell staining
# as §20, §21, §22, §23, §24, §25, §26, §27, §28, §29, §30, §31, §32, §33, §34, §35, §36
# NCI/ADR-RES cells = assay: Intracellular ROS generation (ROS Assay Stain 1X); format: cell-based; conditions: 100 μM compound with 125 μM H2O2, 1-5 h and 24 h, 1/Cu(II) equimolar
# Description: Measurement of intracellular ROS levels in NCI/ADR-RES cells treated with Cu(II) ions, cyclopeptide 1, or the 1/Cu(II) metallopeptide system confirmed a time-dependent increase in the level of ROS generation. In short, after 24 h of incubation, cells were stained with ROS Assay Stain 1× and treated with 100 μM Cu(II) (CuCl2·2H2O), cyclopeptide 1, or 1/Cu(II), along with 125 μM H2O2, and fluorescence was recorded (λex = 495/λem = 520 nm) every hour for the first 5 h and again at 24 h. The experiment with the metallopeptide system was conducted by using equimolar amounts of cyclopeptide 1 and Cu(II) to prevent an excess of free copper in the medium. […] The cytotoxicity of the metallopeptide systems appears to be closely linked to their ability to enhance intracellular oxidative stress via increased ROS production, likely driven by Cu(II) accumulation within the cells.
# 9.2. […]
# NCI/ADR-RES cells were seeded in a 96 well plate (Thermo Scientific 165305) at a density of 2,5 x 10^5 cells/ml. […] The fluorescence was measured in a microplate reader every hour for the first 5 hours, and again at 24 hours after the addition of the compounds (λex= 495 nm / λem= 520 nm). […]
# Figure S15. […] Fluorescence (λex= 495 nm / λem= 520 nm) was recorded every hour for the first 5 hours, and again at 24 hours after the addition of the compounds to assess intracellular ROS generation. […]
smiles,measurement,setting,value
"N=C(N)NCCC[C@@H]1NC(=O)c2ccc(nc2)-c2ccc(cn2)NC(=O)CCNC(=O)[C@H](CCCNC(=N)N)NC(=O)[C@H](CCCNC(=N)N)NC(=O)[C@H](CCCNC(=N)N)NC(=O)c2ccc(nc2)-c2ccc(cn2)NC(=O)CCNC(=O)[C@H](CCCNC(=N)N)NC(=O)[C@H](CCCNC(=N)N)NC1=O [compound 1, cyclo-(βAlaBpy-Arg3)2] (cyclo([X1]RRR[βAla][X1]RRR[βAla]))",E max (maximum % cell inhibition),[1],10 ± 2%
same,IC50,[1],> 100 µM
same,Kd,[2],0.39 ± 0.19 µM
same,E max (maximum % cell inhibition),[3],27 ± 1%
same,IC50,[3],> 100 µM
same,intracellular ROS levels (fluorescence),NCI/ADR-RES cells,"also promotes ROS generation, albeit to a lesser extent"
